Experiments:
[1] = system: Sp1, VEGF, EGFR and PDGFA expression; experiment: Expression of Sp1 and downstream molecules in H727 cells in vitro (Western/Northern blot); assay type: cell-based, human; conditions: 100 μg/ml BVZ, 5 days
Description: FIG. 16. […] H727 cells were incubated in medium or medium containing 0.36 μM MIT for 24 hours. mRNA was extracted for Northern blot analysis of Sp1 expression (A1). H727 and BON-1 cells were incubated in medium or medium containing 0-0.36 μM MIT for 1 to 24 hours. […] B. Chromatin was prepared from the cells and ChIP assay was performed as described in Materials and Methods.
FIG. 18. Effects of treatment with BVZ and MIT on the growth of and gene expression in human carcinoid cells in vitro. A. H727 and BON-1 cells were incubated for 5 days in a medium alone or a medium containing 25 to 100 μg/ml BVZ. The viable cells were counted. B. H727 cells were incubated for 5 days in a medium alone or a medium containing 100 μg/ml BVZ. Total protein lysates were harvested from the cell cultures, and the level of Sp1 and VEGF protein expression was determined using Western blot analysis. Equal protein-sample loading was monitored by probing the same membrane filter with an anti-GAPDH. C. […] Cytotoxicity was assessed using the MTT assay.
Western blot analysis. […] Equal protein-sample loading was monitored by probing the same membrane filter with an antibody against glyceraldehyde-3-phosphate dehydrogenase (GAPDH) (21). The probe proteins were detected using the Amersham enhanced chemiluminescence system according to the manufacturer's instructions. […]

BON-1 cells = experiment: Viable cell count in vitro, BON-1; assay type: cell-based, human; conditions: 0 to 100 μg/ml BVZ, 5 days
Description: FIG. 18. Effects of treatment with BVZ and MIT on the growth of and gene expression in human carcinoid cells in vitro. A. H727 and BON-1 cells were incubated for 5 days in a medium alone or a medium containing 25 to 100 μg/ml BVZ. The viable cells were counted. B. H727 cells were incubated for 5 days in a medium alone or a medium containing 100 μg/ml BVZ. Total protein lysates were harvested from the cell cultures, and the level of Sp1 and VEGF protein expression was determined using Western blot analysis. Equal protein-sample loading was monitored by probing the same membrane filter with an anti-GAPDH. C. H727 and BON-1 cells were treated with MIT at concentrations ranging from 0.1 to 2.5 μM for 24 hours. Cytotoxicity was assessed using the MTT assay.
Effects of treatment with BVZ and MIT on the growth of and gene expression in human LGNET cells. To further determine whether treatment with BVZ directly impacts gene expression in LGNET cells, we incubated H727 and BON-1 cells in a medium alone or a medium containing 0 to 100 μg/ml BVZ for 5 days.

[2] = system: Sp1 recruitment into the Sp1 promoter; experiment: ChIP assay, tumors formed by PANC-1 cells in nude mice; assay type: in vivo; conditions: tumors from treated mice (BVZ, MIT, B+M)
Description: FIG. 15. Effects of treatment with BVZ and MIT on Sp1 recruitment into the Sp1 promoter in human pancreatic cancer cells in vitro and in vivo. A, schematic structures of the minimal Sp1 promoters. The nucleotide positions and sequences of Sp1-binding sites and polymerase chain reaction forward and reverse primers flanking those sites for ChIP assay are shown. B, Sp1 and VEGF promoter reporter constructs were transfected into PANC-1 cells in triplicate and incubated for 12 hours. The cells were then incubated for another 24 hours in a medium alone or a medium containing 100 μg/ml BVZ or 0.1 μM MIT. Total protein lysates were harvested from the cell cultures for measurement of Sp1 and VEGF promoter activity using a luciferase assay kit. The relative Sp1 and VEGF promoter activities were assessed, and the activity in treated groups was expressed as the fold change of that in their respective control groups. C and D, chromatin was extracted from (C) PANC-1 cells that were incubated in vitro for 2 days in a medium alone or a medium containing 100 μg/ml BVZ or 0.1 μM MIT and (D) tumors formed by PANC-1 cells in nude mice that received treatment as described in FIG. 2A. […]

Substance: bevacizumab [BVZ]
- expression of Sp1 and VEGF [1]: did not affect the expression of Sp1 or its major downstream molecule, VEGF
- cell growth in vitro (BON-1 cells): did not affect the growth
- Sp1 recruitment to its own promoter [2]: significantly increase Sp1 recruitment to its own promoter
